# The NIST ThermoML archive (doi:10.1021/je2009208)
# Numbers after ± are expanded uncertainties.
# What was measured:
# [1] = 298.15 K; 101.33 kPa; Liquid; Vibrating tube method
# [2] = refractive index (Na D-line) (dimensionless); settings: 293.15 K; 101.33 kPa; Liquid; Standard Abbe refractometry
SMILES,mass density [1] [kg/m3],refractive index [2]
C=CC#N [acrylonitrile],800.6 ± 0.2,1.3908 ± 0.0008
CO [methanol],791.3 ± 0.2,1.3286 ± 0.0008
O [water],–,1.3333 ± 0.0008
